In patent publication US7649022B2, “Bioabsorbable elastomeric polymer networks, cross-linkers and methods of use” (priority 2007, dated 2010):

Assay: Properties and self-adherence of films of PEA 4-Phe-4 mixed with EAC-2 cross-linkers, dry and after 24 h in water
Assay type: physicochemical
Set-up: key to Self-adherence: (—) means: no self-adherence observed
Details: for Self-adherence: folded film in water 24 hours; for Dry: dry film; for Wet: pre-soaked in water at room temperature 24 hours
From the text: At the first stage, this Example addresses the question of whether invention cross-linking agents can be used as plasticizers without causing the composition to undesirably adhere to the surface of other materials (for example, steel, and other medical device surfaces).

Row | SMILES | Self-adherence (PEA 4-Phe-4/EAC-2 40/60 w/w) | Self-adherence (PEA 4-Phe-4/EAC-2 60/40 w/w) | Self-adherence (PEA 4-Phe-4/EAC-2 80/20 w/w) | Dry (PEA 4-Phe-4/EAC-2 60/40 w/w) | Wet (PEA 4-Phe-4/EAC-2 60/40 w/w) | Dry (PEA 4-Phe-4/EAC-2 80/20 w/w) | Dry (PEA 4-Phe-4/EAC-2 40/60 w/w)
1 | C=C(C)C(=O)NC(CC(C)C)C(=O)OCCCCCCOC(=O)C(CC(C)C)NC(=O)C(=C)C (stereo not shown) [Leu-6-MA] | — | — | — |  |  |  | 
2 | C=C(C)C(=O)N[C@@H](Cc1ccccc1)C(=O)OCCCCCCOC(=O)[C@H](Cc1ccccc1)NC(=O)C(=C)C [Phe-6-MA, dimethacrylate of bis(L-Phe)-1,6-hexanediol diester] | — | — | — | Hard | Elastic | Hard | 
3 | O=C(C=Cc1ccccc1)NC(Cc1ccccc1)C(=O)OCCCCCCOC(=O)C(Cc1ccccc1)NC(=O)C=Cc1ccccc1 (stereo not shown) [Phe-6-CA] | — | — | — | Brittle | Elastic | Hard | Brittle
4 | CC(C)CC(NC(=O)C=Cc1ccccc1)C(=O)OCCCCCCOC(=O)C(CC(C)C)NC(=O)C=Cc1ccccc1 (stereo not shown) [Leu-6-CA] | — | — | — | Elastic |  |  | 
5 | C=CC(=O)NC(CC(C)C)C(=O)OCCCCCCOC(=O)C(CC(C)C)NC(=O)C=C (stereo not shown) [Leu-6-AA] | — | — | — |  | Brittle | Hard | 
